Experimental data taken from ChEMBL document CHEMBL4483862, “Open-source discovery of chemical leads for next-generation chemoprotective antimalarials” (2018).

Test system: Plasmodium berghei
Test: Luciferase/luciferin-expressing antifolate-resistant parasites were used to infect a culture of HepG2 cells that were pre-incubated with compounds. Infected hepatocytes emit light due to the luciferase reaction. Assay results are presented as the percent inhibition of light emission compared to control. […]
Format: functional
Conditions: sporozoite; for IC50: read-out: LUCIFERASE INFECTION ASSAY - IC50; for IC90: read-out: LUCIFERASE INFECTION ASSAY - IC90

| SMILES | IC50 | IC90 |
| --- | --- | --- |
| Cc1sc2ncnc(Sc3nc4ncccn4n3)c2c1C | > 2 µM | > 2 µM |
| COc1ccc(OCc2noc(CN3CCc4ccccc43)n2)cc1 | > 2 µM | > 2 µM |
| O=C1c2ccccc2NC(c2cc(Br)cs2)N1C1CC1 (configuration not stated) | > 10 µM | > 10 µM |
| Cc1nn(CC(=O)N2c3ccccc3NC(=O)CC2C)c(=O)c(C#N)c1C (configuration not stated) | > 2 µM | > 2 µM |
| FC(F)(F)c1nnc2ccc(Oc3ccc(Cl)c4ccccc34)nn12 | > 10 µM | > 10 µM |
| O=C(NCC1COc2ccccc2O1)c1cc2ccccc2cc1O (configuration not stated) | > 10 µM | > 10 µM |
| COc1ccc2nc(C)cc(N3CCc4c(sc(N)c4C#N)C3)c2c1 | > 10 µM | > 10 µM |
| CC(NCc1nc(N)nc(N(C)C)n1)c1ccccc1Cl (configuration not stated) | > 10 µM | > 10 µM |
| CC(=O)c1ccc(N2CCN(c3nc4ccccc4s3)CC2)cc1 | 3.62 µM | > 10 µM |
| Cc1cc(CSc2nnc(CN3CCCCC3)n2-c2ccc(F)cc2)on1 | > 10 µM | > 10 µM |
| CCc1ccc(S(=O)(=O)Oc2ccccc2NC(C)=O)cc1 | > 10 µM | > 10 µM |
| CN1CCN(S(=O)(=O)c2ccc(SCC3CCCCC3)nc2)CC1 | > 10 µM | > 10 µM |
| COc1ccc(-c2nc(C=C3C(=O)c4ccccc4C3=O)cs2)cc1 | > 10 µM | > 10 µM |
| Clc1ccccc1CNc1ncnc2ccsc12 | > 10 µM | > 10 µM |
| Cc1ccc2nc(CNc3ccccc3-c3ccccc3)cc(=O)n2c1 | > 10 µM | > 10 µM |
| CC(=O)c1c[nH]c(C(=O)OCC(=O)NCCc2ccc(C(C)C)cc2)c1 | > 2 µM | > 2 µM |
| CCCN1C(=O)C(=O)N(CN2CCc3sccc3C2)C1=O | > 2 µM | > 2 µM |
| Nc1nc(CN2CCN(Cc3cccc4cccnc34)CC2)nc2ccccc12 | > 10 µM | > 10 µM |
| O=C(CN1CCN(C(=O)c2ccc(=O)n(Cc3ccccc3)n2)CC1)NC1CC1 | > 10 µM | > 10 µM |
| CC(=O)Nc1cc(C(=O)CSc2ncnc3sccc23)ccc1O | > 10 µM | > 10 µM |
| CN1CCN(c2ccc(CNS(=O)(=O)c3cccs3)cn2)CC1 | > 2 µM | > 2 µM |
| CC(C)(C)OC(=O)N1CCN(CN2C(=O)NC3(CCCCC3)C2=O)CC1 | > 10 µM | > 10 µM |

| SMILES | IC50 | IC90 |
| --- | --- | --- |
| CN(C(=O)Cn1nnc(-c2cccc(C(F)(F)F)c2)n1)C1(C#N)CCCCC1 | > 10 µM | > 10 µM |
| Cc1cc(NC(=O)CCc2c(-c3ccc(F)cc3)[nH]c3ccc(F)cc23)no1 | > 10 µM | > 10 µM |
| CC(C)C(=O)NCc1coc(-c2cccs2)n1 | > 10 µM | > 10 µM |
| CCOc1ccc(C(=O)COC(=O)c2c3ccccc3cc3ccccc23)cc1 | > 10 µM | > 10 µM |
| O=c1cc(CNc2ccccc2N2CCCCC2)nc2sccn12 | 9.19 µM | > 10 µM |
| c1ccc(C(Sc2ncnc3sccc23)c2ccccc2)cc1 | > 10 µM | > 10 µM |
| O=C(OC(C(=O)N1CCOCC1)c1ccccc1)c1cccc(-n2cccc2)c1 (configuration not stated) | > 2 µM | > 2 µM |
| CC(C)n1ncc2c(C(=O)Nc3ccn(C)n3)cc(-c3cccs3)nc21 | > 10 µM | > 10 µM |
| COCc1c(C(=O)Nc2nnc(C3CCCCC3)s2)oc2ccccc12 | > 10 µM | > 10 µM |
| Cc1c(Cl)cccc1NC(=O)CNC(=O)CN1CCc2ccccc2C1 | > 10 µM | > 10 µM |
| Cc1cn2c(/C=C/c3nc4cc(Cl)ccc4o3)c(C)nc2s1 | > 10 µM | > 10 µM |
| CC(NC(=O)C1CCCN(C(=O)OC(C)(C)C)C1)c1ccc(-n2ccnc2)cc1 (configuration not stated) | > 2 µM | > 2 µM |
| Cc1nc2ccccc2nc1SCC(=O)Nc1ccccc1N1CCOCC1 | > 10 µM | > 10 µM |
| Cc1ccccc1COC(=O)C1(NC(=O)NCc2ccccc2)CCCC1 | > 10 µM | > 10 µM |
| CCn1nnnc1Sc1ncnc2scc(-c3ccc(C)cc3)c12 | > 10 µM | > 10 µM |
| O=C(CCc1nc2ccccc2n(CCc2ccccc2)c1=O)N1CCC1 | > 10 µM | > 10 µM |
| Cc1ccc(C(=O)CN2C(=O)C(=O)N(C)C2=O)cc1C | > 10 µM | > 10 µM |
| O=c1[nH]c2ccc(-c3csc(-c4ccsc4)n3)cc2[nH]1 | 4.23 µM | > 10 µM |
| CCN(CC)Cc1ccccc1CNC(=O)c1cccc2ccccc12 | > 10 µM | > 10 µM |
| CN(C)C(CNC(=O)c1cc(C2CC2)nn1-c1ccccc1)Cc1ccccc1 (configuration not stated) | > 10 µM | > 10 µM |
| COc1cccc2sc(NC(=O)C3CCN(C(C)=O)CC3)nc12 | > 10 µM | > 10 µM |
| C=CCc1cc(C(=O)Nc2ccc3oc(C)nc3c2)cc(OC)c1OC | 4.31 µM | > 10 µM |

| SMILES | IC50 | IC90 |
| --- | --- | --- |
| Cc1ccsc1CN(C)Cc1nnc(C(=O)Nc2ccc(Cl)cc2)s1 | > 10 µM | > 10 µM |
| Cc1cc2ccccc2n1CC(=O)NCc1ccc(NC(=O)c2ccco2)cc1 | 5.73 µM | > 10 µM |
| NC(=O)N1CC=C(c2ccc(Oc3ncnc4sccc34)cc2)CC1 | > 2 µM | > 2 µM |
| O=C(Nc1ccc(Cl)c(C(F)(F)F)c1)c1[nH]nc2ccccc12 | > 10 µM | > 10 µM |
| Cc1cc(C)n2nc(SC(C)C(=O)N3CCCc4ccccc43)nc2n1 (configuration not stated) | > 2 µM | > 2 µM |
| Cc1ccc(C)c(OCCN2CCN(CC(=O)Nc3c(C)cccc3C)CC2)c1 | > 10 µM | > 10 µM |
| O=c1cc(CN2CCCc3ccc(C(F)(F)F)cc32)nc2sccn12 | > 10 µM | > 10 µM |
| CCN(Cc1ccccc1)C(=O)c1cc(-c2ccccc2)nc2c1cnn2CC | > 10 µM | > 10 µM |
| Cc1ccc(COC(=O)c2cccc3c(=O)c(C)c(-c4ccccc4)oc23)cc1 | > 10 µM | > 10 µM |
| Cc1[nH]c2ccc(C(=O)Nc3ccc(-n4cnnn4)cc3)cc2c1C | > 10 µM | > 10 µM |
| O=C(CNc1ccc(Oc2ccc(Br)cc2)cc1)NC1CC1 | > 10 µM | > 10 µM |
| NS(=O)(=O)c1ccc2c(c1)CCN2Cc1ccc(Cl)cc1 | > 2 µM | > 2 µM |
| CCC(C(=O)Nc1nc(C)c(Cc2ccc3c(c2)OCO3)s1)c1ccccc1 (configuration not stated) | > 10 µM | > 10 µM |
| CC(NC(=O)c1cccc(Nc2ncccn2)c1)c1cccc(C(F)(F)F)c1 (configuration not stated) | 0.729 µM | 6.34 µM |
| CCC(C)(C)NC(=O)CSc1nnc(/C=C/c2ccccc2C)[nH]1 | > 10 µM | > 10 µM |
| COC(=O)c1ccc(NC(=O)Cc2ccc(NC(=O)OC(C)(C)C)cc2)c(C)c1 | > 10 µM | > 10 µM |
| COCCNC(=O)CN(C)S(=O)(=O)c1ccc2c(c1)CCC(=O)N2 | > 10 µM | > 10 µM |
| O=C(NCc1ccccc1CN1CCOCC1)c1cccc(C(F)(F)F)c1 | > 10 µM | > 10 µM |
| COc1ccccc1NS(=O)(=O)c1ccc2nc(-c3ccncc3)[nH]c2c1 | > 10 µM | > 10 µM |
| Cc1ccc(-n2c(C)cc(C(=O)CSc3n[nH]c(=O)n3C3CC3)c2C)cc1C | > 10 µM | > 10 µM |
| CC(OC(=O)c1n[nH]c(=O)c2ccccc12)C(=O)N(CCC#N)c1ccccc1 (configuration not stated) | > 10 µM | > 10 µM |
| CN1C(=O)N(CN2CCN(c3ccccn3)CC2)C(=O)C12CCCCC2 | > 10 µM | > 10 µM |
